How the values were obtained:
[1] = tested on: Total ATXN3 (tATXN3) protein; assay: Endogenous Total ATXN3 (tATXN3) Protein Assay (MSD immunoassay of cell lysates); format: cell-based; conditions: average IC50, total ATXN3 protein in cell lysate after 48 h with compound (Table 1)
Procedure, shortened: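 Cells in DMEM/10% FBS were plated at 10,000 per well onto 7-point, 3.16-fold compound dilutions in duplicate for 48 h at 37° C, then lysed. Total ATXN3 in lysates was measured by MSD sandwich immunoassay: mouse anti-ATXN3 capture, rabbit anti-ATXN3 detection, SULFO-TAG anti-rabbit. Average IC50 was reported in star bins.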

ATXN3 pre-mRNA = assay: RT-qPCR Assay to Quantify Exon 4 Skipping in ATXN3 pre-mRNA in Cells; format: cell-based; conditions: percent exon 4 skipping in ATXN3 pre-mRNA, RT-qPCR of cell lysates; average IC50
Procedure, shortened: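 Cells plated at 10,000/well onto a 7-point, 3.16-fold DMSO dilution series (duplicates), incubated 24 h at 37 °C, then lysed. Exon 4 skipping measured by one-step RT-qPCR (48 °C RT, 40 cycles); IC50 interpolated from dose-response fit of percent skipping.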

Row | IC50 [1] | IC50 (ATXN3 pre-mRNA) | SMILES
1 | 30 to 300 nM | 30 to 300 nM | Cc1c([C@@H]2CC=CC[C@H]2N)sc2c(NCc3ccco3)cc(Cl)nc12 [Compound 382, 2-((1R,6R)-6-aminocyclohex-3-en-1-yl)-5-chloro-N-(furan-2-ylmethyl)-3-methylthieno[3,2-b]pyridin-7-amine]
2 | 30 to 300 nM | 30 to 300 nM | Cn1c([C@@H]2CCOC[C@H]2N)c(Br)c2nc(Cl)cc(NCc3cccs3)c21 [Compound 384, 2-((3S,4R)-3-aminotetrahydro-2H-pyran-4-yl)-3-bromo-5-chloro-1-methyl-N-(thiophen-2-ylmethyl)-1H-pyrrolo[3,2-b]pyridin-7-amine]
3 | 30 to 300 nM | 30 to 300 nM | N[C@@H]1CC=CC[C@H]1c1sc2c(NCc3cccs3)nc(Cl)nc2c1Br [Compound 385, 6-((1R,6R)-6-aminocyclohex-3-en-1-yl)-7-bromo-2-chloro-N-(thiophen-2-ylmethyl)thieno[3,2-d]pyrimidin-4-amine]
4 | 30 to 300 nM | 30 to 300 nM | CC#CCNc1cc(Cl)nc2c(I)c([C@@H]3CC=CC[C@H]3N)sc12 [Compound 386, 2-((1R,6R)-6-aminocyclohex-3-en-1-yl)-N-(but-2-yn-1-yl)-5-chloro-3-iodothieno[3,2-b]pyridin-7-amine]
5 | 300 to 1000 nM | 300 to 1000 nM | N[C@@H]1CCOC[C@H]1c1sc2c(NCc3ccco3)cc(Cl)nc2c1Cl [Compound 389, 2-((3S,4R)-4-aminotetrahydro-2H-pyran-3-yl)-3,5-dichloro-N-(furan-2-ylmethyl)thieno[3,2-b]pyridin-7-amine]
6 | 300 to 1000 nM | 300 to 1000 nM | N[C@@H]1CCCC[C@H]1c1c(I)c2nc(Cl)nc(NCc3ccco3)c2n1C(F)F [Compound 391, 6-((1R,2R)-2-aminocyclohexyl)-2-chloro-5-(difluoromethyl)-N-(furan-2-ylmethyl)-7-iodo-5H-pyrrolo[3,2-d]pyrimidin-4-amine]
7 | 300 to 1000 nM | 300 to 1000 nM | COc1ncccc1C#Cc1c([C@H]2CC=CC[C@@H]2N)sc2c(NCc3cccs3)cc(Cl)nc12 [Compound 394, 2-((1S,6S)-6-aminocyclohex-3-en-1-yl)-5-chloro-3-((2-methoxypyridin-3-yl)ethynyl)-N-(thiophen-2-ylmethyl)thieno[3,2-b]pyridin-7-amine]
8 | 300 to 1000 nM | 30 to 300 nM | N[C@H]1CC=CC[C@@H]1c1sc2c(NCc3cccs3)cc(Cl)nc2c1C#Cc1ccncc1 [Compound 395, 2-((1S,6S)-6-aminocyclohex-3-en-1-yl)-5-chloro-3-(pyridin-4-ylethynyl)-N-(thiophen-2-ylmethyl)thieno[3,2-b]pyridin-7-amine]
9 | 300 to 1000 nM | 30 to 300 nM | N[C@@H]1CC=CC[C@H]1c1sc2c(NCc3ccco3)nc(Cl)nc2c1Br [Compound 396, 6-((1R,6R)-6-aminocyclohex-3-en-1-yl)-7-bromo-2-chloro-N-(furan-2-ylmethyl)thieno[3,2-d]pyrimidin-4-amine]
10 | 300 to 1000 nM | 30 to 300 nM | CC#CCNc1cc(Cl)nc2c(Br)c([C@H]3CCOC[C@@H]3N)sc12 [Compound 398, 2-((3R,4S)-3-aminotetrahydro-2H-pyran-4-yl)-3-bromo-N-(but-2-yn-1-yl)-5-chlorothieno[3,2-b]pyridin-7-amine]
11 | 300 to 1000 nM | 300 to 1000 nM | Cc1c([C@H]2CC=CC[C@@H]2N)n(C(F)F)c2c(NCc3ccccc3)nc(Cl)nc12 [Compound 399, 6-((1S,6S)-6-aminocyclohex-3-en-1-yl)-N-benzyl-2-chloro-5-(difluoromethyl)-7-methyl-5H-pyrrolo[3,2-d]pyrimidin-4-amine]
12 | > 1000 nM | 300 to 1000 nM | Cc1c([C@@H]2CCCC[C@H]2N)sc2c(NCc3ccco3)cc(Cl)nc12 [Compound 401, 2-((1R,2R)-2-aminocyclohexyl)-5-chloro-N-(furan-2-ylmethyl)-3-methylthieno[3,2-b]pyridin-7-amine]
13 | 300 to 1000 nM | 30 to 300 nM | N[C@@H]1CC=CC[C@H]1c1sc2c(NCc3ccccc3)cc(Cl)nc2c1Br [Compound 403, 2-((1R,6R)-6-aminocyclohex-3-en-1-yl)-N-benzyl-3-bromo-5-chlorothieno[3,2-b]pyridin-7-amine]
14 | 30 to 300 nM | 30 to 300 nM | N[C@@H]1CC=CC[C@H]1c1sc2c(NCc3ccccc3)cc(Cl)nc2c1Cl [Compound 404, 2-((1R,6R)-6-aminocyclohex-3-en-1-yl)-N-benzyl-3,5-dichlorothieno[3,2-b]pyridin-7-amine]
15 | ≤ 30 nM | ≤ 30 nM | N[C@@H]1CCOC[C@H]1c1sc2c(NCc3cccs3)cc(Cl)nc2c1Cl [Compound 405, 2-((3S,4R)-4-aminotetrahydro-2H-pyran-3-yl)-3,5-dichloro-N-(thiophen-2-ylmethyl)thieno[3,2-b]pyridin-7-amine]
16 | 30 to 300 nM | ≤ 30 nM | N[C@@H]1CCOC[C@H]1c1sc2c(NCc3ccccc3)cc(Cl)nc2c1Cl [Compound 406, 2-((3S,4R)-4-aminotetrahydro-2H-pyran-3-yl)-N-benzyl-3,5-dichlorothieno[3,2-b]pyridin-7-amine]
17 | 30 to 300 nM | 30 to 300 nM | N[C@@H]1COCC[C@H]1c1sc2c(NCc3nccs3)cc(Cl)nc2c1Cl [Compound 407, 2-((3S,4R)-3-aminotetrahydro-2H-pyran-4-yl)-3,5-dichloro-N-(thiazol-2-ylmethyl)thieno[3,2-b]pyridin-7-amine]
18 | 30 to 300 nM | 30 to 300 nM | N[C@@H]1COCC[C@H]1c1sc2c(NCc3nccs3)cc(Cl)nc2c1I [Compound 408, 2-((3S,4R)-3-aminotetrahydro-2H-pyran-4-yl)-5-chloro-3-iodo-N-(thiazol-2-ylmethyl)thieno[3,2-b]pyridin-7-amine]
19 | 30 to 300 nM | 30 to 300 nM | N[C@@H]1CCCC(F)(F)[C@H]1c1sc2c(NCc3cccs3)cc(Cl)nc2c1Cl [Compound 409, 2-((1S,6R)-6-amino-2,2-difluorocyclohexyl)-3,5-dichloro-N-(thiophen-2-ylmethyl)thieno[3,2-b]pyridin-7-amine]
20 | 30 to 300 nM | 30 to 300 nM | N[C@@H]1COCC[C@H]1c1sc2c(NCc3ccco3)cc(Cl)nc2c1Cl [Compound 410, 2-((3S,4R)-3-aminotetrahydro-2H-pyran-4-yl)-3,5-dichloro-N-(furan-2-ylmethyl)thieno[3,2-b]pyridin-7-amine]
21 | 30 to 300 nM | 30 to 300 nM | N[C@@H]1CC=CC[C@H]1c1sc2c(NCc3ccccc3F)cc(Cl)nc2c1Br [Compound 411, 2-((1R,6R)-6-aminocyclohex-3-en-1-yl)-3-bromo-5-chloro-N-(2-fluorobenzyl)thieno[3,2-b]pyridin-7-amine]
22 | 300 to 1000 nM | 300 to 1000 nM | N[C@@H]1CCCC(F)(F)[C@H]1c1sc2c(NCc3ccco3)nc(Cl)nc2c1Br [Compound 412, 6-((1S,6R)-6-amino-2,2-difluorocyclohexyl)-7-bromo-2-chloro-N-(furan-2-ylmethyl)thieno[3,2-d]pyrimidin-4-amine]
23 | 30 to 300 nM | 30 to 300 nM | Cc1c([C@@H]2CC=CC[C@H]2N)sc2c(NCc3ccco3)nc(Cl)nc12 [Compound 413, 6-((1R,6R)-6-aminocyclohex-3-en-1-yl)-2-chloro-N-(furan-2-ylmethyl)-7-methylthieno[3,2-d]pyrimidin-4-amine]
